US20230167118A1, “DEGRADATION OF BRUTON'S TYROSINE KINASE (BTK) BY CONJUGATION OF BTK INIDBITORS WITH E3 LIGASE LIGAND AND METHODS OF USE” (BEIGENE, LTD., priority 2020, published 2023)

What was measured:
HEK-293 cells = test: HEK-293 Cytotoxicity Assay (CellTiter-Glo); type: cell-based; settings: Homo sapiens, HEK293, 72 h incubation, CellTiter-Glo luminescence
Procedure: HEK-293 Cytotoxicity Assay
HEK-293 cells are treated with compounds diluted in 0.2% DMSO, dilution is done according to the following protocol: (1) make 500× stock solution in DMSO from 5 mM by 4-fold dilution, total 8 doses were included; (2) make 2× solution in cell culture medium by transferring 0.5 ul 500× stock solution into 125 ul medium; (3) 50 ul of 2× solution is added to cells and incubate for 72 h.
Add 25 μl of the CellTiter-Glo®Reagent [I (Promega)—Cat No. G7572] to each well in the 96-well plate. Mix contents for 2 minutes on an orbital shaker to induce cell lysis. Allow the plate to incubate at room temperature for 10 minutes to stabilize luminescent signal. Record luminescence on BMG PheraStar with luminescence protocol.
(§1) The IC50 value of a compound can be obtained by fitting the following equation. Y=Bottom+(TOP−Bottom)/(1+((IC50/X)^hillslope)) Wherein, X and Y are known values, and IC50, Hillslope, Top and Bottom are the parameters obtained by fitting with software. Y is the inhibition percentage (calculated from the equation), X is the concentration of the compound; IC50 is the concentration of the compound when the 50% inhibition is reached. The smaller the IC50 value is, the stronger the inhibitory ability of the compound is. Vice versa, the higher the IC50 value is, the weaker the ability the inhibitory ability of the compound is; Hillslope represents the slope of the fitted curve, generally around 1*; Bottom represents the minimum value of the curve obtained by data fitting, which is generally 0%±20%; Top represents the maximum value of the curve obtained by data fitting, which is generally 100%±20%. The experimental data were fitted by calculating and analyzing with Dotmatics data analysis software.

BTK = target: T1, BTK (Homo sapiens, UniProt Q06187); test: Cell Degradation: BTK degradation in TMD-8 cells, HTRF assay; type: cell-based; settings: 6 h treatment, IC50 (DC50) of BTK degradation
T1 construct: High control=Cell group with added DMSO and without compound, indicating microplate readings without BTK degradation; endogenous in cells; host or cells: TMD-8 cells
T1 sequence (Q06187 whole entry): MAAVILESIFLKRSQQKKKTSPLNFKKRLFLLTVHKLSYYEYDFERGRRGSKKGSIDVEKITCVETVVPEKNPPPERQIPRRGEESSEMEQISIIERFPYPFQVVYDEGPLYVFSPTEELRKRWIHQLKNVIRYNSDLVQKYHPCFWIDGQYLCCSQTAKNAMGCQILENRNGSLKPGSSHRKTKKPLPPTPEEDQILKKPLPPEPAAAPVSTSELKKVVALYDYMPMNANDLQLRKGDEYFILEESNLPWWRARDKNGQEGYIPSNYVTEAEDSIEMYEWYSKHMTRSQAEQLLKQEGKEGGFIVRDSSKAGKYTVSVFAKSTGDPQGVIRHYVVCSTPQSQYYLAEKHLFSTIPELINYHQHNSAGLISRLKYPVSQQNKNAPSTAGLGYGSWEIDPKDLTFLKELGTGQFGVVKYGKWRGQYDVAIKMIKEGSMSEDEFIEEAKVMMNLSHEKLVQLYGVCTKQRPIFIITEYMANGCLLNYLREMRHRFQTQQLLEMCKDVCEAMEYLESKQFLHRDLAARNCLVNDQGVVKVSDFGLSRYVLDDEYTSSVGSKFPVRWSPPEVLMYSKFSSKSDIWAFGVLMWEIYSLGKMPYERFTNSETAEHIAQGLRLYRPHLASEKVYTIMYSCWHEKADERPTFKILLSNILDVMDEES
Procedure: TMD-8 cells are treated with compounds in 0.2% DMSO, dilution is done according to the following protocol: (1) make 500× stock solution in DMSO from 1 mM by 6-fold dilution, total 8 doses were included; (2) make 2× solution in cell culture medium by transferring 0.5 μl 500× stock solution into 125 μl medium; (3) 15 μl of 2× solution is added to cells and incubate for 6 h.
After 6 h treatment, add […] 4×lysis buffer to each well; seal the plate and incubate 30 min at room temperature on a plate shaker; Once the cells are lysed, 16 μL of cell lysate are transferred to a PE 384-well HTRF detection plate; 4 μL of pre-mixed HTRF antibodies are added to each well; Cover the plate with a plate sealer, spin 1000 rpm for 1 min, Incubate overnight at room temperature; Read on BMG PheraStar with HTRF protocol (337 nm-665 nm-620 nm).
The inhibition (degradation) percentage of the compound was calculated by the following equation: Inhibition percentage of Compound=100-100× (Signal-low control)/(High control-low control), wherein signal=each test compound group
Dmax is the maximum percentage of inhibition (degradation).
The IC50 (DC50) value of a compound can be obtained by fitting the following equation
Y=Bottom+(TOP-Bottom)/(1+((IC50/X)^hillslope))
as §1, with “Wherein,” for “The IC50 value of a compound can be obtained by fitting the following equation. Y=Bottom+(TOP−Bottom)/(1+((IC50/X)^hillslope)) Wherein,”, “1 *;” for “1*;”

Compound	DC50 (BTK) [nM]	IC50 (HEK-293 cells) [nM]
COc1cc(-c2nc3c(-c4ccc([C@@H](C)NC(=O)c5nc(C(C)(C)C)no5)c(C)c4)ncnc3[nH]2)ccc1N1CCN(CC2CCN(c3ccc(N4CCC(=O)NC4=O)c(C)c3)CC2)CC1 [Example 113, (R)-3-(tert-butyl)-N-(1-(4-(8-(4-(4-((1-(4-(2,4-dioxotetrahydropyrimidin-1(2H)-yl)-3-methylphenyl)piperidin-4-yl)methyl)piperazin-1-yl)-3-methoxyphenyl)-9H-purin-6-yl)-2-methylphenyl)ethyl)-1,2,4-oxadiazole-5-carboxamide]	0.97	> 10000
Cc1cc(-c2ncnc3[nH]c(-c4ccc(C5(O)CCN(CC6CCN(c7ccc(N8CCC(=O)NC8=O)cc7)CC6)C5)cn4)cc23)ccc1[C@@H](C)NC(=O)c1nc(C(C)(C)C)no1 (stereo partly drawn) [Example 180, 3-(tert-butyl)-N-((1R)-1-(4-(6-(5-(1-((1-(4-(2,4-dioxotetrahydropyrimidin-1(2H)-yl)phenyl)piperidin-4-yl)methyl)-3-hydroxypyrrolidin-3-yl)pyridin-2-yl)-7H-pyrrolo[2,3-d]pyrimidin-4-yl)-2-methylphenyl)ethyl)-1,2,4-oxadiazole-5-carboxamide]	0.52	985
Cc1cc(-c2ncnc3[nH]c(-c4c(C)nn(C5CCN(CC6CCN(c7ccc(N8CCC(=O)NC8=O)c(C)c7)CC6)CC5)c4C)cc23)ccc1[C@@H](C)NC(=O)c1nc(C(C)(C)C)no1 [Example 61, (R)-3-(tert-butyl)-N-(1-(4-(6-(1-(1-((1-(4-(2,4-dioxotetrahydropyrimidin-1(2H)-yl)-3-methylphenyl)piperidin-4-yl)methyl)piperidin-4-yl)-3,5-dimethyl-1H-pyrazol-4-yl)-7H-pyrrolo[2,3-d]pyrimidin-4-yl)-2-methylphenyl)ethyl)-1,2,4-oxadiazole-5-carboxamide]	0.52	9000
Cc1cc(N2CCC(CN3CCN(c4ccc(-c5cc6c(-c7ccc([C@@H](C)NC(=O)c8noc(C(C)(C)C)n8)c(C)c7F)ncnc6[nH]5)cn4)CC3)CC2)ccc1N1CCC(=O)NC1=O [Example 141, (R)-5-(tert-butyl)-N-(1-(4-(6-(6-(4-((1-(4-(2,4-dioxotetrahydropyrimidin-1(2H)-yl)-3-methylphenyl)piperidin-4-yl)methyl)piperazin-1-yl)pyridin-3-yl)-7H-pyrrolo[2,3-d]pyrimidin-4-yl)-3-fluoro-2-methylphenyl)ethyl)-1,2,4-oxadiazole-3-carboxamide]	1.23	> 10000
Cc1cc(-c2ncnc3[nH]c(-c4ccc(C5CC6CCC(C5)N6CC5CCN(c6ccc(N7CCC(=O)NC7=O)cc6)CC5)cc4)cc23)ccc1[C@@H](C)NC(=O)c1nc(C(C)(C)C)no1 (stereo partly drawn) [Example 183, 3-(tert-butyl)-N-((1R)-1-(4-(6-(4-(8-((1-(4-(2,4-dioxotetrahydropyrimidin-1(2H)-yl)phenyl)piperidin-4-yl)methyl)-8-azabicyclo[3.2.1]octan-3-yl)phenyl)-7H-pyrrolo[2,3-d]pyrimidin-4-yl)-2-methylphenyl)ethyl)-1,2,4-oxadiazole-5-carboxamide]	1.4	1040
Cc1cc(N2CCN(CC3CCN(c4ccc(N5CCC(=O)NC5=O)c(C)c4)CC3)CC2)ccc1-c1nc2c(-c3ccc([C@@H](C)NC(=O)c4nc(C(C)(C)C)no4)c(C)c3)ncnc2[nH]1 [Example 114, (R)-3-(tert-butyl)-N-(1-(4-(8-(4-(4-((1-(4-(2,4-dioxotetrahydropyrimidin-1(2H)-yl)-3-methylphenyl)piperidin-4-yl)methyl)piperazin-1-yl)-2-methylphenyl)-9H-purin-6-yl)-2-methylphenyl)ethyl)-1,2,4-oxadiazole-5-carboxamide]	1.68	> 10000

More lines, main results first:

DC50 (BTK) [nM]	Compound	IC50 (HEK-293 cells) [nM]
3.2	Cc1cc(-c2ncnc3[nH]c(-c4ccc(C5CCN(CC6CCN(c7ccc8c(c7)CN(C7CCC(=O)NC7=O)C8=O)CC6)CC5)cc4)cc23)ccc1CNC(=O)c1nc(C(C)(C)C)no1 (centres unmarked) [Example 17, 3-(tert-butyl)-N-(4-(6-(4-(1-((1-(2-(2,6-dioxopiperidin-3-yl)-1-oxoisoindolin-5-yl)piperidin-4-yl)methyl)piperidin-4-yl)phenyl)-7H-pyrrolo[2,3-d]pyrimidin-4-yl)-2-methylbenzyl)-1,2,4-oxadiazole-5-carboxamide]	> 10000
1.25	Cc1cc(-c2ncnc3[nH]c(-c4cnc(N5CCN(CC6CCN(c7ccc(N8CCC(=O)NC8=O)cc7)CC6)CC5)nc4)cc23)ccc1[C@@H](C)NC(=O)c1nc(C(C)(C)C)no1 [Example 160, (R)-3-(tert-butyl)-N-(1-(4-(6-(2-(4-((1-(4-(2,4-dioxotetrahydropyrimidin-1(2H)-yl)phenyl)piperidin-4-yl)methyl)piperazin-1-yl)pyrimidin-5-yl)-7H-pyrrolo[2,3-d]pyrimidin-4-yl)-2-methylphenyl)ethyl)-1,2,4-oxadiazole-5-carboxamide]	> 10000
1.97	Cc1cc(-c2ncnc3[nH]c(-c4c(C)nn(C5CCN(CCNCC6CCN(c7ccc(N8CCC(=O)NC8=O)cc7)CC6)CC5)c4C)cc23)ccc1[C@@H](C)NC(=O)c1nc(C(C)(C)C)no1 [Example 175, (R)-3-(tert-butyl)-N-(1-(4-(6-(1-(1-(2-(((1-(4-(2,4-dioxotetrahydropyrimidin-1(2H)-yl)phenyl)piperidin-4-yl)methyl)amino)ethyl)piperidin-4-yl)-3,5-dimethyl-1H-pyrazol-4-yl)-7H-pyrrolo[2,3-d]pyrimidin-4-yl)-2-methylphenyl)ethyl)-1,2,4-oxadiazole-5-carboxamide]	7360
1.61	Cc1cc(-c2ncnc3[nH]c(-c4ccc(N5CCN(CC6CCN(c7ccc(N8CCC(=O)NC8=O)cc7)CC6)CC5)nc4)cc23)ccc1[C@@H](C)NC(=O)c1nc(C2(C)CC2)no1 [Example 166, (R)-N-(1-(4-(6-(6-(4-((1-(4-(2,4-dioxotetrahydropyrimidin-1(2H)-yl)phenyl)piperidin-4-yl)methyl)piperazin-1-yl)pyridin-3-yl)-7H-pyrrolo[2,3-d]pyrimidin-4-yl)-2-methylphenyl)ethyl)-3-(1-methylcyclopropyl)-1,2,4-oxadiazole-5-carboxamide]	> 10000
0.63	Cc1cc(-c2ncnc3[nH]c(-c4ccc(N5CCN(CC6CCN(c7ccc(N8CCC(=O)NC8=O)cc7)CC6)CC5)cc4)cc23)ccc1CNC(=O)c1cnn(C(C)(C)C)c1 [Example 35, 1-(tert-butyl)-N-(4-(6-(4-(4-((1-(4-(2,4-dioxotetrahydropyrimidin-1(2H)-yl)phenyl)piperidin-4-yl)methyl)piperazin-1-yl)phenyl)-7H-pyrrolo[2,3-d]pyrimidin-4-yl)-2-methylbenzyl)-1H-pyrazole-4-carboxamide]	> 10000
13.3	Cc1cc(-c2ncnc3[nH]c(-c4c(C)nn(C5CCN(CC6CCN(c7ccc(N8CCC(=O)NC8=O)cc7)CC6)CC5)c4C)cc23)ccc1[C@@H](C)N(C)C(=O)c1nc(C(C)(C)C)no1 [Example 155, (R)-3-(tert-butyl)-N-(1-(4-(6-(1-(1-((1-(4-(2,4-dioxotetrahydropyrimidin-1(2H)-yl)phenyl)piperidin-4-yl)methyl)piperidin-4-yl)-3,5-dimethyl-1H-pyrazol-4-yl)-7H-pyrrolo[2,3-d]pyrimidin-4-yl)-2-methylphenyl)ethyl)-N-methyl-1,2,4-oxadiazole-5-carboxamide]	
